Data taken from patent US12239643B2, “Therapeutic agent for inflammatory diseases, autoimmune diseases, fibrotic diseases, and cancer diseases” (MEIJI SEIKA PHARMA CO., LTD., priority 2018, dated 2025).

Test system: PDE4
Test: Evaluation of PDE4 inhibitory activity, scintillation proximity assay
Assay type: biochemical
Settings: scintillation proximity assay; class symbols of Evaluation 1; read-out: PDE4 Inhibitory Activity (concentration for the inhibition rate of 50%, IC50), Evaluation 1
Method in brief: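 SPA with [2,8-3H]-cAMP and diluted PDE4 enzyme preparation in 50 mM Tris-HCl pH 7.4, 8.3 mM MgCl2, 1.7 mM EGTA, 3 mg/mL BSA, 120 min at room temperature. Product captured on ZnSO4-containing YSi-SPA beads, scintillation counted; IC50 from inhibition curves vs DMSO control and no-enzyme blank.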

| Compound | IC50 |
| --- | --- |
| OC(c1ccc(-c2nccs2)c2oc(N3CC4CCC(C3)N4)nc12)C(F)F (centres unmarked) [Example 128, 1-(2-(3,8-Diazabicyclo[3.2.1]octan-3-yl)-7-(thiazol-2-yl)benzo[d]oxazol-4-yl)-2,2-difluoroethan-1-ol] | < 0.1 µM |
| CC(O)(c1ccc(-c2nccs2)c2oc(N3CC4CCC(C3)N4)nc12)C(F)F (centres unmarked) [Example 129, 2-(2-(3,8-Diazabicyclo[3.2.1]octan-3-yl)-7-(thiazol-2-yl)benzo[d]oxazol-4-yl)-1,1-difluoropropan-2-ol] | < 0.1 µM |
| COC(c1ccc(-c2nccs2)c2oc(N3CC4CC(C3)N4)nc12)C(F)F (centres unmarked) [Example 130, 2-(3,6-Diazabicyclo[3.1.1]heptan-3-yl)-4-(2,2-difluoro-1-methoxyethyl)-7-(thiazol-2-yl)benzo[d]oxazole] | < 0.1 µM |
| COC(c1ccc(-c2nccs2)c2oc(N3CC4CCC(C3)N4)nc12)C(F)F (centres unmarked) [Example 131, 2-(3,8-Diazabicyclo[3.2.1]octan-3-yl)-4-(2,2-difluoro-1-methoxyethyl)-7-(thiazol-2-yl)benzo[d]oxazole] | < 0.1 µM |
| OCc1ccc(-c2nccs2)c2oc(N3CC4CCC(C3)N4)nc12 [Example 132, (2-(3,8-Diazabicyclo[3.2.1]octan-3-yl)-7-(thiazol-2-yl)benzo[d]oxazol-4-yl)methanol] | < 0.1 µM |
| OCc1ccc(-c2nccs2)c2oc(N3CC4CC(C3)N4)nc12 [Example 133, (2-(3,6-Diazabicyclo[3.1.1]heptan-3-yl)-7-(thiazol-2-yl)benzo[d]oxazol-4-yl)methanol] | < 0.1 µM |
| OCc1ccc(-c2nccs2)c2oc(N3CC4CCCC(C3)N4)nc12 [Example 134, (2-(3,9-Diazabicyclo[3.3.1]nonan-3-yl)-7-(thiazol-2-yl)benzo[d]oxazol-4-yl)methanol] | < 0.1 µM |
| OC(c1cc(-c2nccs2)c2oc(N3CC4CC(C3)N4)nc2c1)C(F)(F)F (centres unmarked) [Example 135, 1-(2-(3,6-Diazabicyclo[3.1.1]heptan-3-yl)-7-(thiazol-2-yl)benzo[d]oxazol-5-yl)-2,2,2-trifluoroethan-1-ol] | < 0.1 µM |
| OC(c1cc(-c2nccs2)c2oc(N3CC4CCCC(C3)N4)nc2c1)C(F)(F)F (centres unmarked) [Example 136, 1-(2-(3,9-Diazabicyclo[3.3.1]nonan-3-yl)-7-(thiazol-2-yl)benzo[d]oxazol-5-yl)-2,2,2-trifluoroethan-1-ol] | < 0.1 µM |
| OC(c1cc(-c2nccs2)c2oc(N3CC4CCC(C3)N4)nc2c1)C(F)(F)F (centres unmarked) [Example 138, 1-(2-(3,8-Diazabicyclo[3.2.1]octan-3-yl)-7-(thiazol-2-yl)benzo[d]oxazol-5-yl)-2,2,2-trifluoroethan-1-ol] | < 0.1 µM |
| OC(c1cc(-c2nccs2)c2oc(N3CC4CCC(C3)N4)nc2c1)C(F)(F)F (centres unmarked) [Example 139, 1-(2-(3,8-Diazabicyclo[3.2.1]octan-3-yl)-7-(thiazol-2-yl)benzo[d]oxazol-5-yl)-2,2,2-trifluoroethan-1-ol] | < 0.1 µM |
| OC(c1cc(-n2cccn2)c2oc(N3CC4CCC(C3)N4)nc2c1)C(F)(F)F (centres unmarked) [Example 140, 1-(2-(3,8-Diazabicyclo[3.2.1]octan-3-yl)-7-(1H-pyrazol-1-yl)benzo[d]oxazol-5-yl)-2,2,2-trifluoroethan-1-ol] | < 0.1 µM |
| CC(=O)OC(c1cc(-c2nccs2)c2oc(N3CC4CCC(C3)N4)nc2c1)C(F)(F)F (centres unmarked) [Example 141, 1-(2-(3,8-Diazabicyclo[3.2.1]octan-3-yl)-7-(thiazol-2-yl)benzo[d]oxazol-5-yl)-2,2,2-trifluoroethyl acetate] | < 0.1 µM |
| COC(c1cc(-c2nccs2)c2oc(N3CC4CCC(C3)N4)nc2c1)C(F)(F)F (centres unmarked) [Example 142, 2-(3,8-Diazabicyclo[3.2.1]octan-3-yl)-7-(thiazol-2-yl)-5-(2,2,2-trifluoro-1-methoxyethyl)benzo[d]oxazole] | < 0.1 µM |
| COC(c1cc(-c2nccs2)c2oc(N3CC4CCC(C3)N4)nc2c1)C(F)(F)F (centres unmarked) [Example 143, 2-(3,8-Diazabicyclo[3.2.1]octan-3-yl)-7-(thiazol-2-yl)-5-(2,2,2-trifluoro-1-methoxyethyl)benzo[d]oxazole] | < 0.1 µM |
| COC(c1cc(-c2nccs2)c2oc(N3CC4CC(C3)N4)nc2c1)C(F)(F)F (centres unmarked) [Example 144, 2-(3,6-Diazabicyclo[3.1.1]heptan-3-yl)-7-(thiazol-2-yl)-5-(2,2,2-trifluoro-1-methoxyethyl)benzo[d]oxazole] | < 0.1 µM |
| COC(c1cc(-c2nccs2)c2oc(N3CC4CCCC(C3)N4)nc2c1)C(F)(F)F (centres unmarked) [Example 145, 2-(3,9-Diazabicyclo[3.3.1]nonan-3-yl)-7-(thiazol-2-yl)-5-(2,2,2-trifluoro-1-methoxyethyl)benzo[d]oxazole] | < 0.1 µM |
| FC(F)(F)COC(c1cc(-c2nccs2)c2oc(N3CC4CCC(C3)N4)nc2c1)C(F)(F)F (centres unmarked) [Example 146, 2-(3,8-Diazabicyclo[3.2.1]octan-3-yl)-7-(thiazol-2-yl)-5-(2,2,2-trifluoro-1-(2,2,2-trifluoroethoxy)ethyl)benzo[d]oxazole] | < 0.1 µM |

| Compound | IC50 |
| --- | --- |
| COCCOC(c1cc(-c2nccs2)c2oc(N3CC4CCC(C3)N4)nc2c1)C(F)(F)F (centres unmarked) [Example 147, 2-(3,8-Diazabicyclo[3.2.1]octan-3-yl)-7-(thiazol-2-yl)-5-(2,2,2-trifluoro-1-(2-methoxyethoxy)ethyl)benzo[d]oxazole] | < 0.1 µM |
| CCOC(c1cc(-c2nccs2)c2oc(N3CC4CCC(C3)N4)nc2c1)C(F)(F)F (centres unmarked) [Example 148, 2-(3,8-Diazabicyclo[3.2.1]octan-3-yl)-5-(1-ethoxy-2,2,2-trifluoroethyl)-7-(thiazol-2-yl)benzo[d]oxazole] | < 0.1 µM |
| OCCOC(c1cc(-c2nccs2)c2oc(N3CC4CCC(C3)N4)nc2c1)C(F)(F)F (centres unmarked) [Example 149, 2-(1-(2-(3,8-Diazabicyclo[3.2.1]octan-3-yl)-7-(thiazol-2-yl)benzo[d]oxazol-5-yl)-2,2,2-trifluoroethoxy)ethan-1-ol] | < 0.1 µM |
| CCOC(c1cc(-c2nccs2)c2oc(N3CC4CC(C3)N4)nc2c1)C(F)(F)F (centres unmarked) [Example 150, 2-(3,6-Diazabicyclo[3.1.1]heptan-3-yl)-5-(1-ethoxy-2,2,2-trifluoroethyl)-7-(thiazol-2-yl)benzo[d]oxazole] | < 0.1 µM |
| FC(F)(F)COC(c1cc(-c2nccs2)c2oc(N3CC4CC(C3)N4)nc2c1)C(F)(F)F (centres unmarked) [Example 151, 2-(3,6-Diazabicyclo[3.1.1]heptan-3-yl)-7-(thiazol-2-yl)-5-(2,2,2-trifluoro-1-(2,2,2-trifluoroethoxy)ethyl)benzo[d]oxazole] | < 0.1 µM |
| N#CCOC(c1cc(-c2nccs2)c2oc(N3CC4CC(C3)N4)nc2c1)C(F)(F)F (centres unmarked) [Example 152, 2-(1-(2-(3,6-Diazabicyclo[3.1.1]heptan-3-yl)-7-(thiazol-2-yl)benzo[d]oxazol-5-yl)-2,2,2-trifluoroethoxy)acetonitrile] | < 0.1 µM |
| N#CCOC(c1cc(-c2nccs2)c2oc(N3CC4CCC(C3)N4)nc2c1)C(F)(F)F (centres unmarked) [Example 153, 2-(1-(2-(3,8-Diazabicyclo[3.2.1]octan-3-yl)-7-(thiazol-2-yl)benzo[d]oxazol-5-yl)-2,2,2-trifluoroethoxy)acetonitrile] | < 0.1 µM |
| COCCOC(c1cc(-c2nccs2)c2oc(N3CC4CC(C3)N4)nc2c1)C(F)(F)F (centres unmarked) [Example 154, 2-(3,6-Diazabicyclo[3.1.1]heptan-3-yl)-7-(thiazol-2-yl)-5-(2,2,2-trifluoro-1-(2-methoxyethoxy)ethyl)benzo[d]oxazole] | < 0.1 µM |
| CC(O)COC(c1cc(-c2nccs2)c2oc(N3CC4CCC(C3)N4)nc2c1)C(F)(F)F (centres unmarked) [Example 155, 1-(1-(2-(3,8-Diazabicyclo[3.2.1]octan-3-yl)-7-(thiazol-2-yl)benzo[d]oxazol-5-yl)-2,2,2-trifluoroethoxy)propan-2-ol] | < 0.1 µM |
| OC(O)(c1cc(-c2nccs2)c2oc(N3CC4CCCC(C3)N4)nc2c1)C(F)(F)F [Example 156, 1-(2-(3,9-Diazabicyclo[3.3.1]nonan-3-yl)-7-(thiazol-2-yl)benzo[d]oxazol-5-yl)-2,2,2-trifluoroethane-1,1-diol] | < 0.1 µM |
| OC(O)(c1cc(-c2nccs2)c2oc(N3CC4CCC(C3)N4)nc2c1)C(F)(F)F [Example 157, 1-(2-(3,8-Diazabicyclo[3.2.1]octan-3-yl)-7-(thiazol-2-yl)benzo[d]oxazol-5-yl)-2,2,2-trifluoroethane-1,1-diol] | < 0.1 µM |
| OC(O)(c1cc(-c2nccs2)c2oc(N3CC4CC(C3)N4)nc2c1)C(F)(F)F [Example 158, 1-(2-(3,6-Diazabicyclo[3.1.1]heptan-3-yl)-7-(thiazol-2-yl)benzo[d]oxazol-5-yl)-2,2,2-trifluoroethane-1,1-diol] | 0.1 to 1 µM |
| CC(O)(c1cc(-c2nccs2)c2oc(N3CC4CCC(C3)N4)nc2c1)C(F)(F)F (centres unmarked) [Example 159, 2-(2-(3,8-Diazabicyclo[3.2.1]octan-3-yl)-7-(thiazol-2-yl)benzo[d]oxazol-5-yl)-1,1,1-trifluoropropan-2-ol] | < 0.1 µM |
| CC(O)(c1cc(-c2nccs2)c2oc(N3CC4CC(C3)N4)nc2c1)C(F)(F)F (centres unmarked) [Example 160, 2-(2-(3,6-Diazabicyclo[3.1.1]heptan-3-yl)-7-(thiazol-2-yl)benzo[d]oxazol-5-yl)-1,1,1-trifluoropropan-2-ol] | < 0.1 µM |
| CC(O)(c1cc(-c2nccs2)c2oc(N3CC4CCCC(C3)N4)nc2c1)C(F)(F)F (centres unmarked) [Example 161, 2-(2-(3,9-Diazabicyclo[3.3.1]nonan-3-yl)-7-(thiazol-2-yl)benzo[d]oxazol-5-yl)-1,1,1-trifluoropropan-2-ol] | < 0.1 µM |
| COC(C)(c1cc(-c2nccs2)c2oc(N3CC4CCCC(C3)N4)nc2c1)C(F)(F)F (centres unmarked) [Example 162] | < 0.1 µM |
| CCOC(=O)c1cc(-c2nccs2)c2oc(N3CC4CCC(C3)N4)nc2c1C(F)(F)F [Example 163, Ethyl 2-(3,8-diazabicyclo[3.2.1]octan-3-yl)-7-(thiazol-2-yl)-4-(trifluoromethyl)benzo[d]oxazole-5-carboxylate] | < 0.1 µM |
